Assay [1] addresses GluN1/GluN2C NMDA receptor (Rattus norvegicus, UniProt P35439+Q00961). It is filed as cell-based. The following applies: 10 μM L-glutamate plus 10 μM glycine, ± s.e.m., n ≥ 4.
For assay [2], the target named is GluN1/GluN2B NMDA receptor (Rattus norvegicus, UniProt P35439+Q00960). It is filed as cell-based. Particulars: 10 μM L-glutamate plus 10 μM glycine, ± s.e.m., n ≥ 4.
Assay [3] addresses GluN1/GluN2D NMDA receptor (Rattus norvegicus, UniProt P35439+Q62645). It is filed as cell-based. The following applies: for IC50: IC50 GluN1/GluN2D.
The target in assay [4] is GluN1/GluN2A NMDA receptor (Rattus norvegicus, UniProt P35439+Q00959). It is filed as cell-based. Particulars: for IC50: IC50 GluN1/GluN2A.
In assay [5] the test system is GluN1/GluN2A-D NMDA receptors. It is filed as cell-based.
In assay [6] the test system is AMPA receptors. In words: Preliminary studies of antagonist activity at AMPA receptors.
Assay [7] deals with GluN1/GluN2A receptors with the NTD deleted on both the GluN1 and GluN2 subunits. In words: Inhibition of NTD-deleted GluN1/GluN2A receptor responses in Xenopus oocytes. It is filed as cell-based.
In assay [8] the test system is GluN1/GluN2D receptors with the NTD deleted on both the GluN1 and GluN2 subunits. In words: Inhibition of NTD-deleted GluN1/GluN2D receptor responses in Xenopus oocytes. It is filed as cell-based.
[9] abbreviates: 10 μM L-glutamate plus 10 μM glycine, ± s.e.m., n ≥ 4.
Where [10] appears, read: 10 μM L-glutamate plus 10 μM glycine, −60 mV, ± s.e.m., n ≥ 4.

Where “and” joins values, the source holds several entries; their conditions need not be identical. Identical values can stand only once. Entries after “also recorded” stand apart in the source; their conditions may differ. Like-named read-outs stand apart in the source and are kept apart here.

Sequence of GluN1/GluN2C NMDA receptor (Q00961 20-1237, other chains not shown): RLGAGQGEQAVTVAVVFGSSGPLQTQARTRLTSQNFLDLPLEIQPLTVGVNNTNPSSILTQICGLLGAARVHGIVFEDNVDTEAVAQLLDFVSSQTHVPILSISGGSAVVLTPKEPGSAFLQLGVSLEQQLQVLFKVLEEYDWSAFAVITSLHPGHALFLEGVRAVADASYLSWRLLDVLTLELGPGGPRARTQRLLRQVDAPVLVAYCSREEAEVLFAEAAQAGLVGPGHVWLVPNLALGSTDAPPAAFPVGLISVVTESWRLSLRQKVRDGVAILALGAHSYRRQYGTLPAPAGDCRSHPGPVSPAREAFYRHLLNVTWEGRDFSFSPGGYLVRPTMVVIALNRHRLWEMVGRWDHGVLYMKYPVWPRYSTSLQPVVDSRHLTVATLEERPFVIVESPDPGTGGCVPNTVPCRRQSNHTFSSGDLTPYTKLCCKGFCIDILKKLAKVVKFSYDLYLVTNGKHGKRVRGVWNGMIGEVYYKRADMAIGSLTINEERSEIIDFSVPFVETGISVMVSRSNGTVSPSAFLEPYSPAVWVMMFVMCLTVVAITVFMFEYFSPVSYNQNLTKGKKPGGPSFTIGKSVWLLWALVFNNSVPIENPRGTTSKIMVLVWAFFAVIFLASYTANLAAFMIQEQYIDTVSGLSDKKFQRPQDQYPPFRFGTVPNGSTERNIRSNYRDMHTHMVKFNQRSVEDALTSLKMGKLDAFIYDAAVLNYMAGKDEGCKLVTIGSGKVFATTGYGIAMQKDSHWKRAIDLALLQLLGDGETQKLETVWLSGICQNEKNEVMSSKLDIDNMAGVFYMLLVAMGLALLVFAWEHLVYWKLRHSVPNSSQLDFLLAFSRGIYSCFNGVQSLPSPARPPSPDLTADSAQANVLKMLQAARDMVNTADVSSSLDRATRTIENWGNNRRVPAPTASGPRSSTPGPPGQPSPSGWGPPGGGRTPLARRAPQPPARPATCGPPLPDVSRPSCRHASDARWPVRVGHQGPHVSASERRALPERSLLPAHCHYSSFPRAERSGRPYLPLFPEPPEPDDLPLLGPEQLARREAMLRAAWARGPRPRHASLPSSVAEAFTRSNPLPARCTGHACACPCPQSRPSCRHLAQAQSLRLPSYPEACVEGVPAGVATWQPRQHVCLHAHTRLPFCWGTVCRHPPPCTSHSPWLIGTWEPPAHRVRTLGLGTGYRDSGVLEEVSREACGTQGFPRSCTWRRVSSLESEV
Sequence of GluN1/GluN2D NMDA receptor (Q62645 28-1323, other chains not shown): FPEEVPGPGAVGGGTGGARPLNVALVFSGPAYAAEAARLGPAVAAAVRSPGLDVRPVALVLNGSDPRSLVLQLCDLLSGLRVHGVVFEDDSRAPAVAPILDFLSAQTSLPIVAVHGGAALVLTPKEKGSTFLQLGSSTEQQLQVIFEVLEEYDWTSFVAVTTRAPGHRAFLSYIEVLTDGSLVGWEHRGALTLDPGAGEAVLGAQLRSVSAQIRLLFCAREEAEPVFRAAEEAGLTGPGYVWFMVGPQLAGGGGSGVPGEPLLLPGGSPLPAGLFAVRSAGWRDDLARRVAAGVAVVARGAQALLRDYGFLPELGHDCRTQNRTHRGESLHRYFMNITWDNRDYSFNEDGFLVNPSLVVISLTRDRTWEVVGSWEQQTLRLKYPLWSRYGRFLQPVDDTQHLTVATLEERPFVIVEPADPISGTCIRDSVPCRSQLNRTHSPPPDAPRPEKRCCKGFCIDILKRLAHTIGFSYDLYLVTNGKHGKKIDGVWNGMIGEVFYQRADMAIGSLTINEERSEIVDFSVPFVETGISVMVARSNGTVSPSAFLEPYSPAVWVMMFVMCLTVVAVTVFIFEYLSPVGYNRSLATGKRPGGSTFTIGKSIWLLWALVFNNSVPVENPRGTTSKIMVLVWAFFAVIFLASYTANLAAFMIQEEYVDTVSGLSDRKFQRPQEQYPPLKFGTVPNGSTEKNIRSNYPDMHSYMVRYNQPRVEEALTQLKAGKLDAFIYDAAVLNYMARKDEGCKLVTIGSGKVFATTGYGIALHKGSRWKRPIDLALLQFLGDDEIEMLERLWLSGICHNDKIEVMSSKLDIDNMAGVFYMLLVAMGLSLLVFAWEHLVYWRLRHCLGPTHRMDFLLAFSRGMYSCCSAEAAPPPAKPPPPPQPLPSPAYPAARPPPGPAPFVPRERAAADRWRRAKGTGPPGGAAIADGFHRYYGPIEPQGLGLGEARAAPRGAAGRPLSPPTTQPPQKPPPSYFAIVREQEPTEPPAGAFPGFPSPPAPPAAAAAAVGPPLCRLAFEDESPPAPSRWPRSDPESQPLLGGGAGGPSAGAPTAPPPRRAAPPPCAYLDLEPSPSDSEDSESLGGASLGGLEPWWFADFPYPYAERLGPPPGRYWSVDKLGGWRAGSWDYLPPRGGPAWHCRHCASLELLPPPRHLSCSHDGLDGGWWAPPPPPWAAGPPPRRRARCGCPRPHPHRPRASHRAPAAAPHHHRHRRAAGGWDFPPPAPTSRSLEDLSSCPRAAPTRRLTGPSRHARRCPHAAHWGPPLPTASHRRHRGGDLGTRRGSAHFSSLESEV
Sequence of GluN1/GluN2B NMDA receptor (Q00960 27-1482, other chains not shown): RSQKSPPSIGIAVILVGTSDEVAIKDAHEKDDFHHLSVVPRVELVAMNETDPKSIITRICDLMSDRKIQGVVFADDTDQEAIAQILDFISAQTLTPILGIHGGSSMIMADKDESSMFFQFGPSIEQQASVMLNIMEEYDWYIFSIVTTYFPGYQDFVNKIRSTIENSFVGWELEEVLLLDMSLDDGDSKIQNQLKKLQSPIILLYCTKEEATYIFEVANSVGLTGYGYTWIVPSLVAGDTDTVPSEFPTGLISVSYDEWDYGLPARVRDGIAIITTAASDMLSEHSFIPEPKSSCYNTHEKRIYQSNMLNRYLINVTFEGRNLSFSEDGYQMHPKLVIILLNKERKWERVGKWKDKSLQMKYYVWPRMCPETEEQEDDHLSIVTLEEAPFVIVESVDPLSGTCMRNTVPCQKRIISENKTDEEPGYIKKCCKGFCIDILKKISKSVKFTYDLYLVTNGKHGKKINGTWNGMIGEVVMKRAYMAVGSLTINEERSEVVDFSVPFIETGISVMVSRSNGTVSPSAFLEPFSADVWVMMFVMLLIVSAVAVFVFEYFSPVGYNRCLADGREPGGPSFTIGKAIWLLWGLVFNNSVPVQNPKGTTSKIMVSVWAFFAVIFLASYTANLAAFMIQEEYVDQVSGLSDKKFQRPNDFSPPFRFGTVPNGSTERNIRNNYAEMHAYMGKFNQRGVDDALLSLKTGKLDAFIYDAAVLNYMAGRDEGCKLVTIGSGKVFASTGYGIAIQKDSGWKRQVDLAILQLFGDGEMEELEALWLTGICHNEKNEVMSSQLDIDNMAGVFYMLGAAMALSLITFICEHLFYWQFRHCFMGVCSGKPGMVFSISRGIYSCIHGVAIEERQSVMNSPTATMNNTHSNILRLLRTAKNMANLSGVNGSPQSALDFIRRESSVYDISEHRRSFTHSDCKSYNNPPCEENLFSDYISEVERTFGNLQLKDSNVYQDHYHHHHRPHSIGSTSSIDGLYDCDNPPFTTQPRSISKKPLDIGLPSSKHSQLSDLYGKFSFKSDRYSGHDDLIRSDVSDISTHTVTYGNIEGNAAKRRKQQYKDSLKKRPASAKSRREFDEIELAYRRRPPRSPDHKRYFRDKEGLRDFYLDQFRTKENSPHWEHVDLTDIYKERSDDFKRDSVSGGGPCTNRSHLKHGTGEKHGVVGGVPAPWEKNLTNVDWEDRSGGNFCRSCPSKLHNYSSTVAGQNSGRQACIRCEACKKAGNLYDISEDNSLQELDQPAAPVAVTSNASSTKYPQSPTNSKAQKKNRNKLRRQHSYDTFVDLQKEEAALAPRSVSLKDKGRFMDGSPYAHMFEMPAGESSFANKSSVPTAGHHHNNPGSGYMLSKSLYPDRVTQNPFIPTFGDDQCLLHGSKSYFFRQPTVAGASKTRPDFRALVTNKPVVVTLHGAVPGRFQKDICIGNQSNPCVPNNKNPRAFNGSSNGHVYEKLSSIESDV

Consider `O=C(O)c1cc2cc(Br)ccc2c(I)c1O` [UBP620, 6-bromo-2-hydroxy-1-iodo-3-naphthoic acid], for which, in assay [1], the “% Max. Inh. GluN1/GluN2C” value is recorded as 96.1 ± 2.3%. Moreover, the “% Max. Inh. GluN1/GluN2B” value in assay [2] is 90% and 90.6 ± 10.7%. Besides, the “% Max. Inh. GluN1/GluN2D” value in assay [3] (setting [9]) is listed as 107.1 ± 4.3%. In addition, the “% Max. Inh. GluN1/GluN2A” value in assay [4] (setting [9]) was 90% and 90.5 ± 7.4%.
For `O=C(O)c1cc2cc(Br)ccc2c(Br)c1O` [UBP552, 1,6-Dibromo-2-hydroxy-3-naphthoic acid], the “ability to fully inhibit receptor responses” value in assay [5] (all GluN1/GluN2A-D receptors) is given as “able to fully inhibit all receptor responses”. Further, in assay [2], the “% Max. Inh. GluN1/GluN2B” value is 108.3 ± 2.0%. The “% Max. Inh. GluN1/GluN2D” value in assay [3] (setting [9]) is reported as 103.6 ± 2.2%. For the same molecule, the “effect on oocytes expressing GluN1/GluN2D receptors without agonists” value in assay [3] (100 μM compound in the absence of L-glutamate and glycine) is “no detectable effect”. Besides, the IC50 in assay [3] (setting [10]) was determined as 3.35 ± 0.18 µM; in assay [3] ([Gly] 10 μM, [L-Glu] 0.3 μM), 6.26 ± 0.58 µM; in assay [3] ([Gly] 10 μM, [L-Glu] 300 μM), 3.35 ± 0.82 µM; in assay [3] ([Gly] 300 μM, [L-Glu] 10 μM) it was 3.73 ± 0.75 µM; in assay [3] ([Gly] 300 μM, [L-Glu] 300 μM) it was 4.85 ± 0.27 µM; in assay [4] (setting [10]), 6.29 ± 0.88 µM. Also, the half-maximal inhibitory concentration (IC50) in assay [4] ([Gly] 10 μM, [L-Glu] 2.0 μM) is 5.05 ± 0.73 µM; in assay [4] ([Gly] 10 μM, [L-Glu] 300 μM), 8.58 ± 0.84 µM; in assay [4] ([Gly] 300 μM, [L-Glu] 10 μM) it was 10 ± 1.93 µM; in assay [4] ([Gly] 300 μM, [L-Glu] 300 μM), 15.5 ± 1.73 µM. Besides, the “decrease of IC50 values” in assay [3] (increasing L-glutamate from 0.3 μM to 10 μM or to 300 μM, p < 0.05) turned out to be 46%. The “% Max. Inh. GluN1/GluN2A” value in assay [4] (setting [9]) was found to be 105.6 ± 4.3%. In addition, the “antagonist activity at AMPA receptors” value in assay [6] was “has antagonist activity”. Further, the “inhibition of receptor responses in the absence of the NTD” value is given as “still able to inhibit” in assay [7] (NTD deleted on GluN1 and GluN2A (Figure 4C)); “still able to inhibit” in assay [8] (NTD deleted on GluN1 and GluN2D (Figure 4C)). Also, the “effect of NTD deletion on inhibitory potency” value in assay [7] (compared with wild-type GluN1/GluN2A) is “increased the potency”; in assay [8] (compared with wild-type GluN1/GluN2D), “decreased the inhibitory potency”.
Consider `Oc1ccc2cc(Br)ccc2c1Br` [UBP644, 1,6-dibromo-2-naphthol], for which the “Inhibitory activity at NMDA receptors (Figure 2)” value in assay [5] (compound at 100 μM, GluN1/GluN2A-D, 10 μM L-glutamate plus 10 μM glycine) was “virtually inactive; also recorded: eliminated activity”.
Turning to `O=C(O)c1cc2cc(-c3ccccc3)ccc2c(I)c1O` [UBP619, 2-hydroxy-1-iodo-6-phenyl-3-naphthoic acid], the “% Max. Inh. GluN1/GluN2C” value in assay [1] is reported as 77.3 ± 5.0^EHI %. The “% Max. Inh. GluN1/GluN2B” value in assay [2] is reported as 82.1 ± 3.1%. Moreover, the “% Max. Inh. GluN1/GluN2D” value in assay [3] (setting [9]) was 97.0 ± 2.2%. In addition, the “% Max. Inh. GluN1/GluN2A” value in assay [4] (setting [9]) is listed as 78.8 ± 2.5^CHI %.
In the case of `O=C(O)c1cc(Br)c2ccc(Br)cc2c1` [UBP628, 1,6-Dibromo-3-naphthoic acid], the “% Max. Inh. GluN1/GluN2C” value in assay [1] is 103.0 ± 7.1%. Further, in assay [2], the “% Max. Inh. GluN1/GluN2B” value is 84.4 ± 12.5%. Also, the “% Max. Inh. GluN1/GluN2D” value in assay [3] (setting [9]) came out at 112.4 ± 21.3%. Moreover, the “fold lower potency than UBP552 for GluN1/GluN2D” value in assay [3] (from IC50 values, Table 1) is on record as 33 fold. The “% Max. Inh. GluN1/GluN2A” value in assay [4] (setting [9]) worked out at 104.3 ± 4.3%. In assay [4] (from IC50 values, Table 1), the “fold lower potency than UBP552 at GluN1/GluN2A” value was determined as 3 fold.
Turning to `O=C(O)c1cc2cc(-c3ccccc3)ccc2cc1O` [UBP617, 2-hydroxy-6-phenyl-3-naphthoic acid], in assay [2], the “% Max. Inh. GluN1/GluN2B” value is listed as 56.8 ± 5.2^c-ic-ic-ic-iI %. The “% Max. Inh. GluN1/GluN2A” value in assay [4] (setting [9]) worked out at 71.5 ± 6.4C^c-iHI %.

As usually defined, the IC50 is the midpoint of a concentration-inhibition curve.

Source of the values: PMC3269548 (Neuropharmacology, 2011).
